Data taken from the NIST ThermoML archive (doi:10.1021/je025657+).
“And” between values parts separate entries of the source, which are not always exact repeats. Identical values can stand only once.

COC(F)(F)F [trifluoromethoxymethane]
Details	mass density [kg/m3]
240 K, 17 kPa, Gas	0.84
240 K, 25.1 kPa, Gas	1.25
240 K, 36.9 kPa, Gas	1.87
240 K, 517.1 kPa, Liquid	1262.64
240 K, 1011 kPa, Liquid	1263.83
240 K, 1516.2 kPa, Liquid	1265.03
240 K, 2014.7 kPa, Liquid	1266.21
240 K, 2517.3 kPa, Liquid	1267.38
240 K, 3024.1 kPa, Liquid	1268.56
240 K, 3529.6 kPa, Liquid	1269.72
240 K, 4031 kPa, Liquid	1270.86
240 K, 4515.5 kPa, Liquid	1271.95
240 K, 5038.9 kPa, Liquid	1273.12
240 K, 5511.8 kPa, Liquid	1274.16
240 K, 6024.7 kPa, Liquid	1275.29
240 K, 6511.7 kPa, Liquid	1276.35
240 K, 6981.1 kPa, Liquid	1277.36
250 K, 19.2 kPa, Gas	0.91
250 K, 28.3 kPa, Gas	1.34
250 K, 41.7 kPa, Gas	1.98
250 K, 61.2 kPa, Gas	2.94
250 K, 89.4 kPa, Gas	4.33
250 K, 505.1 kPa, Liquid	1236.18
250 K, 1008.8 kPa, Liquid	1237.55
250 K, 1508.8 kPa, Liquid	1238.91
250 K, 2020.1 kPa, Liquid	1240.28
250 K, 2517.2 kPa, Liquid	1241.59
250 K, 3037 kPa, Liquid	1242.95
250 K, 3530.8 kPa, Liquid	1244.22
250 K, 4030.5 kPa, Liquid	1245.49
250 K, 4537.2 kPa, Liquid	1246.78
250 K, 5042.6 kPa, Liquid	1248.05
250 K, 5550.6 kPa, Liquid	1249.31
250 K, 6026.5 kPa, Liquid	1250.48
250 K, 6529.6 kPa, Liquid	1251.71
250 K, 6975.1 kPa, Liquid	1252.79
260 K, 18.7 kPa, Gas	1.11
260 K, 27.6 kPa, Gas	1.53
260 K, 40.7 kPa, Gas	2.15
260 K, 59.9 kPa, Gas	3.03
260 K, 87.8 kPa, Gas	4.4
260 K, 127.7 kPa, Gas	6.4
260 K, 507.8 kPa, Liquid	1209.12
260 K, 1009.3 kPa, Liquid	1210.7
260 K, 1499.4 kPa, Liquid	1212.21
260 K, 2004.5 kPa, Liquid	1213.76
260 K, 2515.8 kPa, Liquid	1215.3
260 K, 3012.1 kPa, Liquid	1216.77
260 K, 3527.2 kPa, Liquid	1218.29
260 K, 4018 kPa, Liquid	1219.71
260 K, 4522 kPa, Liquid	1221.16
260 K, 5039.1 kPa, Liquid	1222.63
260 K, 5512.3 kPa, Liquid	1223.96
260 K, 6040.8 kPa, Liquid	1225.42
260 K, 6546.9 kPa, Liquid	1226.81
260 K, 6987.4 kPa, Liquid	1227.99
270 K, 23.7 kPa, Gas	1.1
270 K, 35 kPa, Gas	1.6
270 K, 51.5 kPa, Gas	2.35
270 K, 75.7 kPa, Gas	3.49
270 K, 110.6 kPa, Gas	5.15
270 K, 160.6 kPa, Gas	7.63
270 K, 500.8 kPa, Liquid	1180.45
270 K, 1001.8 kPa, Liquid	1182.27
270 K, 1515.4 kPa, Liquid	1184.1
270 K, 1999.2 kPa, Liquid	1185.81
270 K, 2500.7 kPa, Liquid	1187.53
270 K, 3017 kPa, Liquid	1189.29
270 K, 3484.3 kPa, Liquid	1190.86
270 K, 4038.2 kPa, Liquid	1192.68
270 K, 4513.3 kPa, Liquid	1194.24
270 K, 5047.2 kPa, Liquid	1195.96
270 K, 5542.1 kPa, Liquid	1197.53
270 K, 6036.1 kPa, Liquid	1199.08
270 K, 6529.6 kPa, Liquid	1200.61
270 K, 6973.6 kPa, Liquid	1201.96
280 K, 27.5 kPa, Gas	1.21
280 K, 40.5 kPa, Gas	1.79
280 K, 59.6 kPa, Gas	2.61
280 K, 87.6 kPa, Gas	3.89
280 K, 128.3 kPa, Gas	5.75
280 K, 186.4 kPa, Gas	8.53
280 K, 269 kPa, Gas	12.52
280 K, 454.4 kPa, Liquid	1150.61
280 K, 985.2 kPa, Liquid	1152.87
280 K, 1507.7 kPa, Liquid	1155.03
280 K, 1992.9 kPa, Liquid	1157.02
280 K, 2510.8 kPa, Liquid	1159.1
280 K, 3011.5 kPa, Liquid	1161.06
280 K, 3522.2 kPa, Liquid	1163.04
280 K, 4037.2 kPa, Liquid	1164.99
280 K, 4483.8 kPa, Liquid	1166.68
280 K, 4942.1 kPa, Liquid	1168.36
280 K, 5533.2 kPa, Liquid	1170.51
280 K, 5977.4 kPa, Liquid	1172.09
280 K, 6516.6 kPa, Liquid	1173.99
280 K, 7008.7 kPa, Liquid	1175.7
290 K, 18.9 kPa, Gas	0.76
290 K, 30.4 kPa, Gas	1.28
290 K, 50.3 kPa, Gas	2.25
290 K, 74.2 kPa, Gas	3.26
290 K, 109 kPa, Gas	4.83
290 K, 159.4 kPa, Gas	7.09
290 K, 232.8 kPa, Gas	10.52
290 K, 338.9 kPa, Gas	15.78
290 K, 493.5 kPa, Liquid	1119.5
290 K, 976.7 kPa, Liquid	1121.93
290 K, 979.3 kPa, Liquid	1121.87
290 K, 1475.8 kPa, Liquid	1124.36
290 K, 1999.9 kPa, Liquid	1126.86
290 K, 2466.6 kPa, Liquid	1129.04
290 K, 2989.9 kPa, Liquid	1131.43
290 K, 3492.2 kPa, Liquid	1133.73

Liquid
Details	mass density
240 K	1261.55 kg/m3 and 1261.54 kg/m3
250 K	1235.07 kg/m3
260 K	1208.02 kg/m3
270 K	1179.44 kg/m3
280 K	1150.07 kg/m3
